ChEMBL document CHEMBL1201862, “PubChem BioAssay data set” (2004)
Structures can show the parent of a compound that is named as a salt. Active and inactive are the calls of the source.

How the values were obtained:
[1] = test system: Escherichia coli; assay: microbe, parasite or virus in culture
[2] = target: Cysteine protease ATG4B (Homo sapiens, UniProt Q9Y4P1); assay type: functional;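 also: Fluorescence-based dose-response confirmation assay measuring inhibition of ATG4B activity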
[3] = target: Phospholipase A2 (Homo sapiens, UniProt P04054); assay type: functional;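 also: confirmatory dose-response counterscreen on phospholipase A2, testing hits that came from an ultra-high-throughput screen for ATG4B inhibitors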
[4] = THP-1 cell cytotoxicity, dose response, cytotoxicity control for non-replicating M. tuberculosis project (AID 489025); assay type: functional
[5] = target: Dual specificity tyrosine-phosphorylation-regulated kinase 1A (Rattus norvegicus, UniProt Q63470); assay type: biochemical, Homo sapiens
[6] = NIH-3T3 fibroblast cytotoxicity, dose response, cytotoxicity control, cell-based, fluorescence, Alamar Blue, secondary assay (AID 2327); assay type: functional;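 also: NIH-3T3 mouse fibroblasts cultured with fluconazole at 8 µg/mL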
[7] = fluconazole-exposed Candida albicans growth modulators – fluorescence, retest, confirmation (AID 2467); assay type: functional, cell-based
[8] = reduction of Shn3 3'UTR-driven luciferase in osteoblasts – cell-based, Clone20 osteoblasts, firefly luciferase, cherry-picked, dose response (AID 624132); assay type: functional;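 also: firefly luciferase luminescence from reporter carrying the Shn3 3'UTR in osteoblasts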
[9] = loss of viability in HepG2 cells – cell-based, CellTiter-Glo, cherry-picked, cytotoxicity control for Shn3 inhibitor project, dose response (AID 624134); assay type: functional
[10] = non-specific 3'UTR reporter inhibition in Clone20-Shn3RL – cell-based, Renilla luciferase, cherry-picked, counter-screen for Shn3 inhibitor project, dose response (AID 624133); assay type: functional
[11] = test system: HEK293; assay: cells; conditions: Homo sapiens
[12] = test system: HEK293; assay: cells; conditions: Homo sapiens; remark: listed apart in the source
[13] = target: T1, RNA-binding protein pos-1 (Caenorhabditis elegans, UniProt G5EF15); assay: disruptors of C. elegans POS-1 RNA interaction – biochemical, fluorescence polarization, dose response (AID 1964);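 also: purified POS-1 fused to maltose binding protein made in E. coli; potency of compounds blocking POS-1 binding to fluorescent RNA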
T1 sequence (G5EF15 whole entry): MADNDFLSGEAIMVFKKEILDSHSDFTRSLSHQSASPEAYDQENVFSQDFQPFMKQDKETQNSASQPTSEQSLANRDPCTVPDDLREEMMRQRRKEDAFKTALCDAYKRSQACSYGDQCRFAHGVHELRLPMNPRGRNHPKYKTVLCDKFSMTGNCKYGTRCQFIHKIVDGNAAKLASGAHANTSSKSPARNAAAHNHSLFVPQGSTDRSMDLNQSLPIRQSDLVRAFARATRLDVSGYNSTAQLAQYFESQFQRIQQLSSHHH

[14] = target: T2, Zinc finger protein mex-5 (Caenorhabditis elegans, UniProt Q9XUB2); assay: potency of MEX-5 RNA-binding blockers – biochemical, C. elegans, fluorescence polarization, dose response (AID 1960)
T2 sequence (Q9XUB2 whole entry): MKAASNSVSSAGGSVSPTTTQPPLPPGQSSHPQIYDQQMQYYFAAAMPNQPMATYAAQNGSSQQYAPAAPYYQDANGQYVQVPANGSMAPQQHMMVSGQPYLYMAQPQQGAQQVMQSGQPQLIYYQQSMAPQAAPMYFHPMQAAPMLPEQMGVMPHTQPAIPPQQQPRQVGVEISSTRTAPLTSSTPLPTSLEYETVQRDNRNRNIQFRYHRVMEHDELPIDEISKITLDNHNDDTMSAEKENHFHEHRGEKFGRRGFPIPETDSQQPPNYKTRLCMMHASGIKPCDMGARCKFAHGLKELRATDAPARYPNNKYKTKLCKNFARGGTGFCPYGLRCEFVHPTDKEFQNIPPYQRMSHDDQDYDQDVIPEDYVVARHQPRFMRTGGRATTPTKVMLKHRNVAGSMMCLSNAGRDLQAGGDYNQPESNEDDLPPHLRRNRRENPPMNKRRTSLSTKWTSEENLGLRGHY

[15] = viability of PTEN-deleted HCT116 cells – cell-based, HCT116 PTEN knockout, dose response (AID 1047); assay type: functional;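 also: HCT116 colon tumor cells with PTEN knocked out; cells exposed to compound for 60 hours before readout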
[16] = viability of HCT116 lacking mutant beta-catenin – cell-based, human colon tumor, dose response (AID 1045); assay type: functional;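 also: HCT116 colon tumor cells with beta catenin knocked out; cells exposed to compound for 60 hours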
[17] = target: Beta-2 adrenergic receptor (Homo sapiens, UniProt P07550); assay: ADRB2 activation measured by internalization – cell-based, FAP fluorogen, flow cytometry, cherry pick 1, dose response (AID 588763); assay type: functional
[18] = target: Hexokinase-1 (Homo sapiens, UniProt P19367); assay: hexokinase 1 activity inhibitors, potency – biochemical, set 2, resazurin fluorescence coupled readout, selectivity assay for HKDC1 inhibitor project, SAR follow-up (AID 588356); assay type: functional
[19] = target: T3, Hexokinase HKDC1 (Homo sapiens, UniProt Q2TB90); assay: analog inhibition of human HKDC1 activity – biochemical, set 2, SAR follow-up (AID 588355); assay type: functional
T3 sequence (Q2TB90 whole entry): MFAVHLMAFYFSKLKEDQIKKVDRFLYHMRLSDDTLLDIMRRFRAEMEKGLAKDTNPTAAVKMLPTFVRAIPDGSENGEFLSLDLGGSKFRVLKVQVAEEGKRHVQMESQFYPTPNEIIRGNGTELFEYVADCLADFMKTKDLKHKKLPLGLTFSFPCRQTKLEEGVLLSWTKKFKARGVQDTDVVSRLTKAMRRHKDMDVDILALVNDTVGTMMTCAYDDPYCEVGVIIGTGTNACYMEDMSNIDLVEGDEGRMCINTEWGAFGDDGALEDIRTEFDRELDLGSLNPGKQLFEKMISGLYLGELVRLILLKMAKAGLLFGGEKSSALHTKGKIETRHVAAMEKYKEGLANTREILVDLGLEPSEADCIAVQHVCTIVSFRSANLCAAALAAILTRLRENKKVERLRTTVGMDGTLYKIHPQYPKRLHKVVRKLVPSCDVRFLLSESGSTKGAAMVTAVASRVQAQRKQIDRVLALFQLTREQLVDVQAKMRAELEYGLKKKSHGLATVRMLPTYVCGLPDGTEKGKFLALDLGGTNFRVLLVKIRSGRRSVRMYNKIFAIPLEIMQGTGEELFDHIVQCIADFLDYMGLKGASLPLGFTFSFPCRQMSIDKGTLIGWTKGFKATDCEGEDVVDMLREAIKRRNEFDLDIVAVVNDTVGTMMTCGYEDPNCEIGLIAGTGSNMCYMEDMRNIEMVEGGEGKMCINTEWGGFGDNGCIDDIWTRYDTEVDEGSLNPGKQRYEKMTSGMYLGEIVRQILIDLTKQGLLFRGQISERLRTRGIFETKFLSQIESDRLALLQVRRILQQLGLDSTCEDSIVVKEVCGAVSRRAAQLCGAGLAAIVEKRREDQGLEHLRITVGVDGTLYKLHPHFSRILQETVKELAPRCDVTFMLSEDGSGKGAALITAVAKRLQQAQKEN

[20] = test system: CHO; assay: CHO cell viability loss, potency – luminescence, cytotoxicity control for TLR9-MyD88 binding inhibitor project, dose response (AID 588339); assay type: functional, cell-based, hamster; conditions: Cricetulus griseus;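 also: CHO cells stably coexpressing TLR9 and MyD88 fusions from primary screen; compound exposure lasted 48 hours before viability readout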
[21] = target: Heat shock protein HSP 90-alpha (Homo sapiens, UniProt P07900); assay type: functional, organism-based
[22] = target: Beta Lactamase (Pseudomonas aeruginosa, UniProt Q932Y6); assay: BLA reporter interference, concentration series – BLA reporter cells, FRET fluorescence, artefact control for TLR9-MyD88 binding inhibitor project, dose response (AID 588341); assay type: cell-based;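 also: cell based assay in CHO-K1 cells stably expressing beta-lactamase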
[23] = target: T4, Fatty acid synthase (Homo sapiens, UniProt P49327); assay: inhibition of human FAS-TE enzyme activity – biochemical, endpoint fluorescence intensity, uHTS hits, dose response (AID 624327); assay type: functional;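 also: fluorescence from hydrolysis of an O-methyl fluorescein acyl ester substrate by the enzyme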
[24] = target: T4, Fatty acid synthase; assay: inhibition of human FAS-TE enzyme activity – biochemical, kinetic fluorescence intensity, dose response (AID 624326); assay type: functional;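 also: rate of fluorescence rise from hydrolysis of a fluorogenic O-methyl fluorescein ester substrate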
[25] = reduced cellular PGC1a acetyl-lysine signal – cell-based, cherry-picked samples, dose response (AID 720514); assay type: functional;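 also: potency may reflect raised or lowered acetylation signal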

Chain of Cysteine protease ATG4B (Q9Y4P1 whole entry): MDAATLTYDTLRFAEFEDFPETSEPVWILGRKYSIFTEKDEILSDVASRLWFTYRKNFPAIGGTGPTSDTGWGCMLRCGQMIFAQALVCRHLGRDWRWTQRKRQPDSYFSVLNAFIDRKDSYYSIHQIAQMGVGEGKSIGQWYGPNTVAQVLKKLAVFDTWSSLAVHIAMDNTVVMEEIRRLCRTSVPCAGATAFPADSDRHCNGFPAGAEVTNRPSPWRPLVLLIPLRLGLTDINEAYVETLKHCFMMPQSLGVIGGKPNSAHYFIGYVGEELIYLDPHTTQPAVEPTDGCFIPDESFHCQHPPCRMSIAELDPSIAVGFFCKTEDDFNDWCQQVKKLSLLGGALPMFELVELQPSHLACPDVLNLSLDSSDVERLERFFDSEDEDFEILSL
T4 sequence (P49327 whole entry): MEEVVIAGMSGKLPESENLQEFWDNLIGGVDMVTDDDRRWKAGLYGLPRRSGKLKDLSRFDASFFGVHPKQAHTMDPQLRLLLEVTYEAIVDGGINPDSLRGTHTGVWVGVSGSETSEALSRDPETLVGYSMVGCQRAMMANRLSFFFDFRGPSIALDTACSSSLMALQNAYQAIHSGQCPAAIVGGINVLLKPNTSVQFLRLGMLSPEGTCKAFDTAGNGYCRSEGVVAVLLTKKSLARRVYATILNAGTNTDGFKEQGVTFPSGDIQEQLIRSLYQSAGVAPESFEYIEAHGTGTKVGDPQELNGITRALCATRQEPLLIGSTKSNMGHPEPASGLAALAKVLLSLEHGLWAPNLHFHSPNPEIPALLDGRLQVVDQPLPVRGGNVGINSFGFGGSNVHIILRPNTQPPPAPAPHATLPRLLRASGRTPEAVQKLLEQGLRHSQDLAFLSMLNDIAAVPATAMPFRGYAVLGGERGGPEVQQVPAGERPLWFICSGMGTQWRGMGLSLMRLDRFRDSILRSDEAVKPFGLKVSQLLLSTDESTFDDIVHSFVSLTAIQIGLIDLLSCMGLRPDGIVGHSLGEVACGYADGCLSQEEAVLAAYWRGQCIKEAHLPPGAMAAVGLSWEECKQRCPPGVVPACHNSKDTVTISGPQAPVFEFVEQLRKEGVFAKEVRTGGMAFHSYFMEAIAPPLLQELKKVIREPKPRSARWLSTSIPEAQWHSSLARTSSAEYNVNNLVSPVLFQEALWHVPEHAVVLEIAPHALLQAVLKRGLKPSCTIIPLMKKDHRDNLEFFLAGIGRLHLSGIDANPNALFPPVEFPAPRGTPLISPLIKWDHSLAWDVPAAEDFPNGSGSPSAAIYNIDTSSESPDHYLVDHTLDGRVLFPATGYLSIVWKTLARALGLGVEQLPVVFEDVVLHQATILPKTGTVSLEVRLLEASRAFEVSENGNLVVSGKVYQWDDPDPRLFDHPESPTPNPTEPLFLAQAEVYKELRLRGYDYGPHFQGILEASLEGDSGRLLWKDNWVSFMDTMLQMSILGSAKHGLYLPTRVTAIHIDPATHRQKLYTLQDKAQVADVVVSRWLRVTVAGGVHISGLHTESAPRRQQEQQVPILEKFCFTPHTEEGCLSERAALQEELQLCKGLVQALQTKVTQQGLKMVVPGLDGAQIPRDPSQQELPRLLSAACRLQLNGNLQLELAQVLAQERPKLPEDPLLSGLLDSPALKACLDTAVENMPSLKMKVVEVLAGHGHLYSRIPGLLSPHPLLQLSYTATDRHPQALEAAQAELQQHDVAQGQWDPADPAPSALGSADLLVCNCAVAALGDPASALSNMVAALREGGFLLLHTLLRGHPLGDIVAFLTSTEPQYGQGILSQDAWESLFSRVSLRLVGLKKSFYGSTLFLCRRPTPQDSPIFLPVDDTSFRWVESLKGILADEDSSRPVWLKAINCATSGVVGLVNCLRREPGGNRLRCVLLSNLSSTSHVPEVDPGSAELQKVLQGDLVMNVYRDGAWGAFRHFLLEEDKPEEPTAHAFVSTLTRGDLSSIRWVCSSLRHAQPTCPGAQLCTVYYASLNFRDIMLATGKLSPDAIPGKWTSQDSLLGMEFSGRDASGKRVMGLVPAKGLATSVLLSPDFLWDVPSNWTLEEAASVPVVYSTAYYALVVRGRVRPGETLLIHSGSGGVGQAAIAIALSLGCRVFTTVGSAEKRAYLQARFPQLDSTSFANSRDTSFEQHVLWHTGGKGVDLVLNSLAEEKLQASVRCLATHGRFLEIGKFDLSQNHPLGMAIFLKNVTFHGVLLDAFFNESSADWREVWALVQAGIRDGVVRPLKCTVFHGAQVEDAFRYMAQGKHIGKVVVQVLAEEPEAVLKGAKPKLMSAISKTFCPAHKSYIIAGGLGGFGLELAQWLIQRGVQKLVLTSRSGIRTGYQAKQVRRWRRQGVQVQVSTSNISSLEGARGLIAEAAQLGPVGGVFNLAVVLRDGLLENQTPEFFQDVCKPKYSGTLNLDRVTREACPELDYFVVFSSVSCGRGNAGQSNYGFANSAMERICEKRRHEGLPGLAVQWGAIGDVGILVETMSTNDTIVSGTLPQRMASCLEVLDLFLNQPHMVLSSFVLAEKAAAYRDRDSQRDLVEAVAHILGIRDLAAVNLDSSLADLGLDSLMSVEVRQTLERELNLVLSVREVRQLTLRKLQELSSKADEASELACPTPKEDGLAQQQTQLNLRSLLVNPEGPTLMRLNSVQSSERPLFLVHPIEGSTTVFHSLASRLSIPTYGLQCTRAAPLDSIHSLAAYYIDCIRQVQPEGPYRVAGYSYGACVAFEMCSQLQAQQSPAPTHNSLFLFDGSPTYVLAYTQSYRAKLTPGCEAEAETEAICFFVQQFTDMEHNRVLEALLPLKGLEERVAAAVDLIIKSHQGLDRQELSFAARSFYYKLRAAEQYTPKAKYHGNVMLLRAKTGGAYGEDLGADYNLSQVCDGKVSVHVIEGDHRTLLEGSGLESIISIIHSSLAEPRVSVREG
Chain of Phospholipase A2 (P04054 whole entry): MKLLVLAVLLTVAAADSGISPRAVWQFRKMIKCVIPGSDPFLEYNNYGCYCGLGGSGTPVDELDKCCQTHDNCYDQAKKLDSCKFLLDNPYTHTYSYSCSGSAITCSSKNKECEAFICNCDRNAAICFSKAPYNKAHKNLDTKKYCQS
Chain of Beta-2 adrenergic receptor (P07550 whole entry): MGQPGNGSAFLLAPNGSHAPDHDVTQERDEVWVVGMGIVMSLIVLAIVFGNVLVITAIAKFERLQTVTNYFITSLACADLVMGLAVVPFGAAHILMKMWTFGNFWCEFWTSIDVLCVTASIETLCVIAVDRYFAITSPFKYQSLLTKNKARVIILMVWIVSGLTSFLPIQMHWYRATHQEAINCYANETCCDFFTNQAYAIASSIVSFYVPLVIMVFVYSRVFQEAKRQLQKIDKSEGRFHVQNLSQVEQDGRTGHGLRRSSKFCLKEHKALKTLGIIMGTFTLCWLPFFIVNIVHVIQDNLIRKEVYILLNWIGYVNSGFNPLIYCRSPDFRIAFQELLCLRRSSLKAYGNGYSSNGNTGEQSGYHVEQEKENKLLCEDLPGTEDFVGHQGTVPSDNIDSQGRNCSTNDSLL
Chain of Hexokinase-1 (P19367 whole entry): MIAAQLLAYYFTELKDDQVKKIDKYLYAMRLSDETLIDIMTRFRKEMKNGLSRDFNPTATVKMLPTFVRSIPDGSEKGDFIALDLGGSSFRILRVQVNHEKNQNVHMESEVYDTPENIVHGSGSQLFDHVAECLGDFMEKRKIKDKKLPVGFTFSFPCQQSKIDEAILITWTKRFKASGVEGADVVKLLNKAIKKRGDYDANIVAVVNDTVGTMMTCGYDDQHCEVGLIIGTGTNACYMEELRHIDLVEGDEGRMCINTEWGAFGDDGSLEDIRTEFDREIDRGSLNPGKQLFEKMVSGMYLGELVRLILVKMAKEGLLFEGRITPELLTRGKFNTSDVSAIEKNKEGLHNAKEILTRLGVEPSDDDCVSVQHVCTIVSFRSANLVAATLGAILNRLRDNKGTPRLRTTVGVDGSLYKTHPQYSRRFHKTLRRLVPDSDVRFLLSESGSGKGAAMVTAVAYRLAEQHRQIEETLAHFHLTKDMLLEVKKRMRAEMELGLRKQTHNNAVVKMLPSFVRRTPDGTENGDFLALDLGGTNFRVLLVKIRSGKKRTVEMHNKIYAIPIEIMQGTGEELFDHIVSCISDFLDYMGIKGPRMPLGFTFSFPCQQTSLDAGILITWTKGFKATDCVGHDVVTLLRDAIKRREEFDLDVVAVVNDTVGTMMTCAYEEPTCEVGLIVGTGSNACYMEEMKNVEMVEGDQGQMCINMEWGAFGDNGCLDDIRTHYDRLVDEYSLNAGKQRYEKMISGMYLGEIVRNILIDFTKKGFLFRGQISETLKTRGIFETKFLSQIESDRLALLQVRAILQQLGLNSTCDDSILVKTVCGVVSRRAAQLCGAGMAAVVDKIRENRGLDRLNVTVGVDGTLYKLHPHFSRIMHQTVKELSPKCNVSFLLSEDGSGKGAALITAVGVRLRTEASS
Chain of Beta Lactamase (Q932Y6 whole entry): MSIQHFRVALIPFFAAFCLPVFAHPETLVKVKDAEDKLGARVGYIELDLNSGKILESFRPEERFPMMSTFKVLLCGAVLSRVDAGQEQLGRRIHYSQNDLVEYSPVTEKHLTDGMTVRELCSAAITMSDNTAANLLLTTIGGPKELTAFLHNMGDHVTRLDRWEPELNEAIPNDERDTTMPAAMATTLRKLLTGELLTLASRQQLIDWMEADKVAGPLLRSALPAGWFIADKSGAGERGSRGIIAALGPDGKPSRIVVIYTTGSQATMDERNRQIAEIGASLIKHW

Structure (SMILES): O=C(c1ccco1)N1CCCC(c2nc(O)c3nnn(Cc4ccc(F)cc4)c3n2)C1 (configuration not stated)
- AC50 [1]: 42.9 µM (active)

Structure (SMILES): COc1ccc(C(CC(=O)NCc2ccccc2)C(C)C)cc1 (configuration not stated)
- IC50 [2]: 8.14 µM (active)
- IC50 [3]: 7.25 µM (active)

Structure (SMILES): O=c1cc(-c2ccccc2Cl)oc2c([N+](=O)[O-])c(O)cc(O)c12
- CC50 [4]: > 40 µM (active)
- AC50 [5]: 1.22 µM (active)

Structure (SMILES): O=C(Oc1c(CN2CCOCC2)cc(Cl)c2cccnc12)c1ccccc1Cl
- EC50 [6]: > 160 µM (inactive)
- EC50 [7]: 2.86 µM (active)
- AC50 [8]: 4.59 µM (active)
- AC50 [9]: 7.37 µM (active)
- AC50 [10]: 9.15 µM (active)
- EC50 [11]: > 59.6 µM (inactive)
- EC50 [12]: > 59.6 µM (inactive)

Structure (SMILES): CCC(NC(C)C)C(O)c1ccc(O)c(O)c1 (configuration not stated) [ISOETHARINE MESYLATE]
- EC50 [13]: > 300 µM (not active)
- EC50 [14]: 125 µM (active)
- EC50 [15]: 24.1 µM (active)
- EC50 [16]: 20.7 µM (active)
- EC50 [17]: 3.84 µM (active)

Structure (SMILES): CCCCN1C(=O)C(NC(C)=O)c2cc(C)ccc21 (configuration not stated)
- IC50 [18]: > 80 µM (inactive)
- IC50 [19]: > 80 µM (inactive)

Structure (SMILES): Cc1ccc2oc3c(c(=O)c2c1)C(c1cccs1)N(CCCN(C)C)C3=O (configuration not stated)
- AC50 [1]: 27.1 µM (active)

Structure (SMILES): CCCNC(=O)c1nnsc1S(=O)(=O)c1ccc(Cl)cc1
- IC50 [20]: 2.45 µM (active)
- AC50 [21]: 0.602 µM (active)
- IC50 [22]: 16.3 µM (inactive)
- EC50 [17]: 9.54 µM (active)
- AC50 [8]: 3.63 µM (active)
- AC50 [9]: 16.4 µM (active)
- AC50 [10]: 2.88 µM (active)
- IC50 [23]: 12.7 µM (active)
- IC50 [24]: 10.4 µM (active)
- AC50 [25]: 11.7 µM (active)

Structure (SMILES): Fc1ccc(CNC(=S)NCc2ccccc2)cc1
- IC50 [2]: 18.4 µM (active)
- IC50 [3]: 10.6 µM (active)
